Blank lines part the entries; values can stand above or below the molecule they belong to.
Key:
Tpl2 = conditions: read-out: Tpl2 IC50; Reported by Ni et al; cited from earlier work
Microsomal stability = conditions: for Microsomal stability (%): % compound remaining in mouse liver microsomes at 30 min
STK17B [1] = target: T1, STK17B (Homo sapiens, UniProt O94768); conditions: KinaseSeeker IC50, compared with 4
T1 sequence (O94768 1-372): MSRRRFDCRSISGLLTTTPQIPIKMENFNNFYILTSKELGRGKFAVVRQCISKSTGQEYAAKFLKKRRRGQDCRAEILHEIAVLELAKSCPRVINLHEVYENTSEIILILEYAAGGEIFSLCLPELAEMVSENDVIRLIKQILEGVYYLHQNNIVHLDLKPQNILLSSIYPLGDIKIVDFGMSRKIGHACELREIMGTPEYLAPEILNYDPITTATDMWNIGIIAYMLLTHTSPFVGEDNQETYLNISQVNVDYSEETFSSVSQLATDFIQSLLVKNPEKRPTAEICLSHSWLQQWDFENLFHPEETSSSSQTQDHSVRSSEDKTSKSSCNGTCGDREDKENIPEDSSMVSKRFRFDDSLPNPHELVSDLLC

STK17B [2] = target: T1, STK17B; experiment: NanoBRET target engagement in HEK293 cells, STK17B; assay type: cell-based
STK17A = target: T2, STK17A (Homo sapiens, UniProt Q9UEE5); experiment: Eurofins enzyme inhibition assay, STK17A; assay type: biochemical
T2 sequence (Q9UEE5 1-414): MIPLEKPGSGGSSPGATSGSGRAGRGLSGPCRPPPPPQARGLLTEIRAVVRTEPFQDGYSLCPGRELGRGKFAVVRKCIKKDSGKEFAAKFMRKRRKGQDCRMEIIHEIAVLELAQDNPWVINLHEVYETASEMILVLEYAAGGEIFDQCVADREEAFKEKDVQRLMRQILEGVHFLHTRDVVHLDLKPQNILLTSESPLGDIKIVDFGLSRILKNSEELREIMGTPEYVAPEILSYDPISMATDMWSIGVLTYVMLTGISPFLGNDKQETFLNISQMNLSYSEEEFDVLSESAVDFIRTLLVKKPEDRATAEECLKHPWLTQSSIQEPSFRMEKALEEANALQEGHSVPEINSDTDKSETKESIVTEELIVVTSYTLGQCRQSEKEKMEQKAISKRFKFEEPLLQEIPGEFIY

STK17B [3] = target: T1, STK17B; experiment: biochemical
STK17B [4] = target: T1, STK17B
[5] = target: 403 wild type human kinases; experiment: DiscoverX KINOMEscan scanMAX panel; assay type: binding; conditions: for kinases with >75% displacement of the immobilized ligand: scanMAX panel of 403 wild type human kinases at 1 μM
STK17B [6] = target: T1, STK17B; experiment: DiscoverX KINOMEscan binding, STK17B; conditions: DiscoverX binding assay
DAPK family = conditions: read-out: IC50 on the DAPK family; cited from earlier work

compound consumed in mice liver microsomes (Microsomal stability; After 30 minutes): 100%
Structure (SMILES): CSc1ccc(-c2cc3ncnc(SCC(=O)O)c3s2)cc1 [Compound 4, 2-((6-(4-(Methylthio)phenyl)thieno[3,2-d]pyrimidin-4-yl)thio)acetic acid]
IC50 (Tpl2): 3400 nM

Structure (SMILES): O=C(O)COc1ncnc2cc(-c3ccc4[nH]ncc4c3)sc12 [Compound 6, reference compound]
IC50 (Tpl2): 1000 nM

Structure (SMILES): CSc1cccc(-c2cc3ncnc(SCC(=O)O)c3s2)c1 [Compound 11b, 2-((6-(3-(Methylthio)phenyl)thieno[3,2-d]pyrimidin-4-yl)thio)acetic acid]
fold less potent than 4 in the STK17B binding assay (STK17B [1]): about 2.5 fold
fold less potent than 4 in the STK17B cell assay (STK17B [2]; NanoBRET IC50, compared with 4): about 2.5 fold

Microsomal stability (%) (Microsomal stability): > 50%
Structure (SMILES): O=C(O)CSc1ncnc2cc(-c3ccc(C4CC4)cc3)sc12 [Compound 11h, 2-((6-(4-Cyclopropylphenyl)thieno[3,2-d]pyrimidin-4-yl)thio)acetic acid]

Microsomal stability (%) (Microsomal stability): > 50%
Structure (SMILES): O=C(O)CSc1ncnc2cc(-c3cccc(N4CCOCC4)c3)sc12 [Compound 11o, 2-((6-(3-Morpholinophenyl)thieno[3,2-d]pyrimidin-4-yl)thio)acetic acid]

Microsomal stability (%) (Microsomal stability): > 50%
Structure (SMILES): O=C(O)CSc1ncnc2cc(-c3ccc(N4CCOCC4)cc3)sc12 [Compound 11p, 2-((6-(4-Morpholinophenyl)thieno[3,2-d]pyrimidin-4-yl)thio)acetic acid]

Structure (SMILES): O=C(O)CSc1ncnc2cc(-c3cc4ccccc4s3)sc12 [Compound 11s, 2-((6-(Benzo[b]thiophen-2-yl)thieno[3,2-d]pyrimidin-4-yl)thio)acetic acid]
IC50 (STK17A): 5000 to 9000 nM
selectivity for STK17B over CAMKK2 in cells (STK17B [2]; NanoBRET target engagement assays): > 10 fold
IC50 (STK17B [3]): 43 ± 3.5 nM
Microsomal stability (%) (Microsomal stability): > 50%
selectivity for STK17B over STK17A (STK17B [4]; enzyme assays): > 100 fold
selectivity for STK17B over all of the other kinases tested (STK17B [4]; enzyme assays): > 100 fold
kinases with >75% displacement of the immobilized ligand [5]: Eight
selectivity over CAMKK1 and CAMKK2 (STK17B [6]): < 10 fold

Structure (SMILES): COc1ccc(-c2cc3ncnc(SCC(=O)O)c3s2)cc1F [Compound 11z, 2-((6-(3-Fluoro-4-methoxyphenyl)thieno[3,2-d]pyrimidin-4-yl)thio)acetic acid]
drop in cell potency (STK17B [2]; NanoBRET, compared with 11y): 1.3 fold

Structure (SMILES): O=C(O)CSc1ncnc2sc(-c3cc4ccccc4s3)cc12 [Compound 19g, 2-((6-(Benzo[b]thiophen-2-yl)thieno[2,3-d]pyrimidin-4-yl)thio)acetic acid]
fold less active as an inhibitor of STK17B than the chemical probe 11s (STK17B [4]; 19g compared to 11s (Table 9)): > 100 fold
kinases with >65% displacement of the immobilized ligand ([5]; scanMAX panel at 1 μM): 5
kinases with >75% displacement of the immobilized ligand [5]: no kinase

Structure (SMILES): CN1CCN(c2ccc3nc(-c4c(N)c5c(F)cccc5[nH]c4=O)[nH]c3c2)CC1 [dovitinib]
IC50 (DAPK family): 1000 to 5000 nM

From PMC7816213 (Journal of medicinal chemistry, 2020)
